Measurements published in publication PMC11247487, “Discovery of Dual MER/AXL Kinase Inhibitors as Bifunctional Small Molecules for Inhibiting Tumor Growth and Enhancing Tumor Immune Microenvironment” (Journal of Medicinal Chemistry, 2024).

system: Ba/F3-MER cells; assay: Cell viability assay (MTS); type: cell-based; conditions: 72 h

Row | SMILES | IC50 [µM]
1 | Cn1cc(-c2oc3ncnc(Oc4ccc(NC(=O)c5cccn(-c6ccc(F)cc6)c5=O)cc4)c3c2-c2ccc(N)cc2)cn1 [Compound 37, N-(4-{[5-(4-Aminophenyl)-6-(1-methyl-1H-pyrazol-4-yl)furo[2,3-d]pyrimidin-4-yl]oxy}phenyl)-1-(4-fluorophenyl)-2-oxo-1,2-dihydropyridine-3-carboxamide] | 0.0012
2 | Cc1nn(C)cc1-c1oc2ncnc(Oc3ccc(NC(=O)c4cccn(-c5ccc(F)cc5)c4=O)cc3)c2c1-c1cccc(N)c1 [Compound 23, N-(4-{[5-(3-Aminophenyl)-6-(1,3-dimethyl-1H-pyrazol-4-yl)furo[2,3-d]pyrimidin-4-yl]oxy}phenyl)-1-(4-fluorophenyl)-2-oxo-1,2-dihydropyridine-3-carboxamide] | 0.0059
3 | Nc1cccc(-c2c(Br)oc3ncnc(Oc4ccc(NC(=O)c5cccn(-c6ccc(F)cc6)c5=O)cc4)c23)c1 [Compound 19, N-(4-{[5-(3-Aminophenyl)-6-bromofuro[2,3-d]pyrimidin-4-yl]oxy}phenyl)-1-(4-fluorophenyl)-2-oxo-1,2-dihydropyridine-3-carboxamide] | 0.428
4 | Nc1cccc(-c2c(-c3cn[nH]c3)oc3ncnc(Oc4ccc(NC(=O)c5cccn(-c6ccc(F)cc6)c5=O)cc4)c23)c1 [Compound 21, N-(4-{[5-(3-Aminophenyl)-6-(1H-pyrazol-4-yl)furo[2,3-d]pyrimidin-4-yl]oxy}phenyl)-1-(4-fluorophenyl)-2-oxo-1,2-dihydropyridine-3-carboxamide] | 0.0106
5 | Nc1cccc(-c2c(-c3ccsc3)oc3ncnc(Oc4ccc(NC(=O)c5cccn(-c6ccc(F)cc6)c5=O)cc4)c23)c1 [Compound 26, N-(4-{[5-(3-Aminophenyl)-6-(thiophen-3-yl)furo[2,3-d]pyrimidin-4-yl]oxy}phenyl)-1-(4-fluorophenyl)-2-oxo-1,2-dihydropyridine-3-carboxamide] | 0.0045
6 | Cc1noc(C)c1-c1oc2ncnc(Oc3ccc(NC(=O)c4cccn(-c5ccc(F)cc5)c4=O)cc3)c2c1-c1cccc(N)c1 [Compound 24, N-(4-{[5-(3-Aminophenyl)-6-(3,5-dimethyl-1,2-oxazol-4-yl)furo[2,3-d]pyrimidin-4-yl]oxy}phenyl)-1-(4-fluorophenyl)-2-oxo-1,2-dihydropyridine-3-carboxamide] | 1.05
7 | Cn1cc(-c2oc3ncnc(Oc4ccc(NC(=O)c5cccn(-c6ccc(F)cc6)c5=O)cc4)c3c2-c2ccccc2N)cn1 [Compound 36, N-(4-{[5-(2-Aminophenyl)-6-(1-methyl-1H-pyrazol-4-yl)furo[2,3-d]pyrimidin-4-yl]oxy}phenyl)-1-(4-fluorophenyl)-2-oxo-1,2-dihydropyridine-3-carboxamide] | 0.0021
8 | Nc1cccc(-c2coc3ncnc(Oc4ccc(NC(=O)c5cccn(-c6ccc(F)cc6)c5=O)cc4)c23)c1 [Compound 18, N-(4-{[5-(3-Aminophenyl)furo[2,3-d]pyrimidin-4-yl]oxy}phenyl)-1-(4-fluorophenyl)-2-oxo-1,2-dihydropyridine-3-carboxamide] | 0.91
9 | Nc1cccc(-c2c(-c3cc[nH]n3)oc3ncnc(Oc4ccc(NC(=O)c5cccn(-c6ccc(F)cc6)c5=O)cc4)c23)c1 [Compound 25, N-(4-{[5-(3-Aminophenyl)-6-(1H-pyrazol-3-yl)furo[2,3-d]pyrimidin-4-yl]oxy}phenyl)-1-(4-fluorophenyl)-2-oxo-1,2-dihydropyridine-3-carboxamide] | 0.0771
10 | CC(=O)Nc1ccc(-c2c(-c3cnn(C)c3)oc3ncnc(Oc4ccc(NC(=O)c5cccn(-c6ccc(F)cc6)c5=O)cc4)c23)cc1 [Compound 38, N-[4-({5-[4-(Acetylamino)phenyl]-6-(1-methyl-1H-pyrazol-4-yl)furo[2,3-d]pyrimidin-4-yl}oxy)phenyl]-1-(4-fluorophenyl)-2-oxo-1,2-dihydropyridine-3-carboxamide] | 0.0004
11 | CN(C)c1cccc(-c2c(-c3cnn(C)c3)oc3ncnc(Oc4ccc(NC(=O)c5cccn(-c6ccc(F)cc6)c5=O)cc4)c23)c1 [Compound 30, N-[4-({5-[3-(Dimethylamino)phenyl]-6-(1-methyl-1H-pyrazol-4-yl)furo[2,3-d]pyrimidin-4-yl}oxy)phenyl]-1-(4-fluorophenyl)-2-oxo-1,2-dihydropyridine-3-carboxamide] | 0.0134
12 | Cc1oc2ncnc(Oc3ccc(NC(=O)c4cccn(-c5ccc(F)cc5)c4=O)cc3)c2c1-c1cccc(N)c1 [Compound 20, N-(4-{[5-(3-Aminophenyl)-6-methylfuro[2,3-d]pyrimidin-4-yl]oxy}phenyl)-1-(4-fluorophenyl)-2-oxo-1,2-dihydropyridine-3-carboxamide] | 0.211
13 | CNCc1cccc(-c2c(-c3cnn(C)c3)oc3ncnc(Oc4ccc(NC(=O)c5cccn(-c6ccc(F)cc6)c5=O)cc4)c23)c1 [Compound 32, 1-(4-Fluorophenyl)-N-{4-[(5-{3-[(methylamino)methyl]phenyl}-6-(1-methyl-1H-pyrazol-4-yl)furo[2,3-d]pyrimidin-4-yl)oxy]phenyl}-2-oxo-1,2-dihydropyridine-3-carboxamide] | 0.005
14 | Cn1cc(-c2cc3c(Oc4ccc(NC(=O)c5cccn(-c6ccc(F)cc6)c5=O)cc4)ncnc3o2)cn1 [Compound 27, 1-(4-Fluorophenyl)-N-(4-{[6-(1-methyl-1H-pyrazol-4-yl)furo[2,3-d]pyrimidin-4-yl]oxy}phenyl)-2-oxo-1,2-dihydropyridine-3-carboxamide] | 0.172
